Drawing on US20130053381A1, “2,4-DIOXO-1,4-DIHYDRO-2H-QUINAZOLIN-3-YL-SULFONAMIDE DERIVATIVES” (NOVARTIS AG, priority 2010, published 2013), this text covers IC50 and responders for 40 molecules.

For one test, the target named is AMPA receptor. Nature of the test: [3H]CNQX binding test (AMPA-receptor binding). Also noted: species or system rat. As to conditions: Table 1A parent compounds; AMPA-receptor binding as described for Table 2; read-out: IC50. The protocol: CNQX binding test (Honore et al. Biochem. Pharmacol. 1989, 38: 3207-3212). This test is performed as follows.
Brain membranes: The animals are sacrificed, the brain removed and homogenized in 10 volumes of ice-cold 10% sucrose with a glass/Teflon homogenizer at positions 5 for 30 sec. The membranes are centrifuged at 1000×g for 10 min, and the supernatant centrifuged at 20,000×g for 15 min. The resulting pellet is resuspended in 10 volumes of cold water with a tissue homogenizer (Brinkman Polytron) at position 5 for 15 sec and the suspension centrifuged at 8000×g for 10 min. The supernatant including the buffy layer is centrifuged at 40,000×g for 20 min, the pellet resuspended in 5 volumes of water and the suspension frozen (20-30 min in dry ice/MeOH) and thawed (water-bath at 37° C.) twice. The suspension is centrifuged at 40,000×g for 20 min, the pellet resuspended in 50 mM HEPES/KOH, pH 7.5, and centrifuged at 40,000×g for 10 min. The final pellet is resuspended with a glass/Teflon homogenizer in 5 volumes of HEPES/KOH buffer; 2 mL aliquots are frozen and stored in liquid nitrogen.
Pretreatment of membranes: Membranes are thawed at 35° C. and once washed with 50 mM HEPES/KOH by centrifugation at 39,000×g for 10 min. The final pellet is resuspended with a glass/Teflon homogenizer in the same buffer.
Radioligand binding assay: It is performed using 96-well microtiterplates in a volume of 0.3 mL of 50 mM HEPES/KOH, pH 7.2, 100 μg membrane protein, 5 nM [^3H]-CNQX (NEN) and the compound to be tested. Incubation is performed at 4° C. for 40 min and the reaction is terminated by centrifugation (Sigma 4K10) at 3700×g for 30 min. The pellet is washed once with cold buffer and then dissolved in 0.02 mL of the tissue solubilizer Soluene for 20 min. Two hundred μL of the scintillation fluid Microscint 20 (Packard) are added and the radioactivity is counted in a Packard Topcount scintillation counter at an efficiency of 40-45%. Nonspecific binding is defined by 10 μM CNQX. Assays are performed in triplicate.
In general, IC50 refers to the concentration at which inhibition is half-maximal. With `CS(=O)(=O)Nn1c(=O)[nH]c2cc(C(F)(F)F)c(C3CCCCO3)cc2c1=O` (stereo not drawn) [Example 29.0], the half-maximal inhibitory concentration (IC50) worked out at 1080 nM.
On the same count and under the same terms, as for `CCOC(C)c1cc2c(=O)n(NS(C)(=O)=O)c(=O)[nH]c2cc1C(F)(F)F` (stereo not drawn) [Example 17.0], the figure is 350 nM; as for `CS(=O)(=O)Nn1c(=O)[nH]c2cc(C(F)(F)F)c(-c3ccn[nH]3)cc2c1=O` [Example 38.0], 470 nM; as for `CC(F)c1cc2[nH]c(=O)n(NS(C)(=O)=O)c(=O)c2cc1-c1ccnn1C(C)C` (stereo not drawn) [Example 42.0], 220 nM.
As to `COC(c1cc2c(=O)n(NS(C)(=O)=O)c(=O)[nH]c2cc1C(F)(F)F)C(C)C` (stereo not drawn) [Example 28.0], the IC50 was 1040 nM.
On the same count and under the same terms, to `CCC(OC(C)C)c1cc2c(=O)n(NS(C)(=O)=O)c(=O)[nH]c2cc1C(F)(F)F` (stereo not drawn) [Example 20.0] belongs 380 nM; to `CC(OC1CCCC1)c1cc2c(=O)n(NS(C)(=O)=O)c(=O)[nH]c2cc1C(F)(F)F` (stereo not drawn) [Example 25.0], 540 nM.
Consider `C[C@@H]1COC[C@@H]1c1cc2c(=O)n(NS(C)(=O)=O)c(=O)[nH]c2cc1C(F)(F)F` [Example 48.0], for which the IC50 turned out to be 520 nM.
On the same count and under the same terms, to `CS(=O)(=O)Nn1c(=O)[nH]c2cc(C(F)(F)F)c(-c3ccnn3O)cc2c1=O` [Example 31.0] belongs 140 nM; to `CC(C)c1cc2[nH]c(=O)n(NS(C)(=O)=O)c(=O)c2cc1C1CCOC1` (stereo not drawn) [Example 44.0], 2200 nM.
The same measure, in the same setting: as for `CC(C)n1nccc1-c1cc2c(=O)n(NS(C)(=O)=O)c(=O)[nH]c2cc1C(C)(F)F` [Example 40.0], the figure is 210 nM.
On the same count and under the same terms, as for `COCCn1nccc1-c1cc2c(=O)n(NS(C)(=O)=O)c(=O)[nH]c2cc1C(C)C` [Example 36.0], the figure is 320 nM; as for `CCCOC(C)c1cc2c(=O)n(NS(C)(=O)=O)c(=O)[nH]c2cc1C(F)(F)F` (stereo not drawn) [Example 22.0], 980 nM; as for `COCCn1nccc1-c1cc2c(=O)n(NS(C)(=O)=O)c(=O)[nH]c2cc1C(F)(F)F` [Example 32.0], 310 nM.
On to `CCCC(OC)c1cc2c(=O)n(NS(C)(=O)=O)c(=O)[nH]c2cc1C(F)(F)F` (stereo not drawn) [Example 27.0], for which the IC50 worked out at 720 nM.
With `CC(C)n1nccc1-c1cc2c(=O)n(NS(C)(=O)=O)c(=O)[nH]c2cc1C(F)F` [Example 35.0], the IC50 was found to be 110 nM.
Take `Cn1nccc1-c1cc2c(=O)n(NS(C)(=O)=O)c(=O)[nH]c2cc1C(F)F` [Example 34.0]: the IC50 was 260 nM.
Regarding `CC(F)c1cc2[nH]c(=O)n(NS(C)(=O)=O)c(=O)c2cc1-c1ccnn1C` (stereo not drawn) [Example 43.0], the IC50 is 700 nM.
The same measure, in the same setting: to `CS(=O)(=O)Nn1c(=O)[nH]c2cc(C(F)(F)F)c(-c3ccnn3C3CCCC3)cc2c1=O` [Example 46.0] belongs 1200 nM; to `CC(C)n1nccc1-c1cc2c(=O)n(NS(C)(=O)=O)c(=O)[nH]c2cc1CF` [Example 33.0], 440 nM; to `CCOC(C)c1cc2c(=O)n(NS(C)(=O)=O)c(=O)[nH]c2cc1CC` (stereo not drawn) [Example 50.0], 1850 nM.
Same read-out and setting: to `CCCOC(CC)c1cc2c(=O)n(NS(C)(=O)=O)c(=O)[nH]c2cc1C(F)(F)F` (stereo not drawn) [Example 19.0] belongs 520 nM; to `CC(C)COC(C)c1cc2c(=O)n(NS(C)(=O)=O)c(=O)[nH]c2cc1C(F)(F)F` (stereo not drawn) [Example 24.0], 1810 nM.
On to `CC(C)c1cc2[nH]c(=O)n(NS(C)(=O)=O)c(=O)c2cc1-c1ccnn1[C@@H]1CCOC1` [Example 45.0], for which the half-maximal inhibitory concentration (IC50) is 560 nM.
On the same count and under the same terms, as for `Cn1nccc1-c1cc2c(=O)n(NS(C)(=O)=O)c(=O)[nH]c2cc1CF` [Example 39.0], the figure is 770 nM.
Regarding `CCCCOC(C)c1cc2c(=O)n(NS(C)(=O)=O)c(=O)[nH]c2cc1C(F)(F)F` (stereo not drawn) [Example 23.0], the IC50 worked out at 760 nM.
Still for that read-out and setting: to `CC(OCc1ccccc1)c1cc2c(=O)n(NS(C)(=O)=O)c(=O)[nH]c2cc1C(F)(F)F` (stereo not drawn) [Example 51.0] belongs 780 nM; to `Cn1nccc1-c1cc2c(=O)n(NS(C)(=O)=O)c(=O)[nH]c2cc1C(C)(F)F` [Example 41.0], 580 nM; to `CS(=O)(=O)Nn1c(=O)[nH]c2cc(C(F)(F)F)c(C3CCOC3)cc2c1=O` (stereo not drawn) [Example 30.0], 220 nM.

A further test concerns OF1 mice. Nature of the test: Maximal electroshock test (MES Test). Format: in vivo. As to conditions: Mus musculus, po; 50 mg/kg, p.o., pre-treatment time −1 h; read-out: %-Protection. In a few lines: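 Compound given p.o. (typically 50 mg/kg) 1 h before tonic-clonic convulsions were induced via temporal electrodes (50 Hz, 18 mA, 0.2 s); seizure lasting 3 s or less counted as protection. Read-out is percent protected of five mice per condition; ED50 calculated, blood exposure sampled after shock.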
As for `CCOC(=O)CCC(=O)N(n1c(=O)[nH]c2cc(C(F)(F)F)c(-n3ccnc3)cc2c1=O)S(C)(=O)=O` [Example 4.01, 4-[(6-Imidazol-1-yl-2,4-dioxo-7-trifluoromethyl-1,4-dihydro-2H-quinazolin-3-yl)-methanesulfonyl-amino]-4-oxo-butyric acid ethyl ester], the responders at 50 mg/kg was 20%.
Same read-out and setting: as for `CC(C)c1cc2[nH]c(=O)n(N(C(=O)COCc3ccccc3)S(C)(=O)=O)c(=O)c2cc1-c1ccnn1C` [Example 3.29, N-(2-Benzyloxy-acetyl)-N-[7-isopropyl-6-(2-methyl-2H-pyrazol-3-yl)-2,4-dioxo-1,4-dihydro-2H-quinazolin-3-yl]-methanesulfonamide], the figure is 100%; as for `CCCC(=O)N(n1c(=O)[nH]c2cc(C(F)(F)F)c(-n3ccnc3C)cc2c1=O)S(C)(=O)=O` [Example 7.02, N-Butyryl-N-[6-(2-methyl-imidazol-1-yl)-2,4-dioxo-7-trifluoromethyl-1,4-dihydro-2H-quinazolin-3-yl]-methanesulfonamide], 20%; as for `COC(=O)N(n1c(=O)[nH]c2cc(C(F)(F)F)c(-n3cccc3)cc2c1=O)S(C)(=O)=O` [Example 8.04, (2,4-Dioxo-6-pyrrol-1-yl-7-trifluoromethyl-1,4-dihydro-2H-quinazolin-3-yl)-methanesulfonyl-carbamic acid methyl ester], 20%.
The same measure, in the same setting: as for `CCOC(=O)N(n1c(=O)c2cc(-c3ccnn3C)c(C(C)C)cc2n(C(=O)OCC)c1=O)S(C)(=O)=O` [Example 3.33], the figure is 80%; as for `CCCC(=O)N(n1c(=O)[nH]c2cc(C(F)F)c(-c3ccnn3C(C)C)cc2c1=O)S(C)(=O)=O` [Example 6.02, N-Butyryl-N-[7-difluoromethyl-6-(2-isopropyl-2H-pyrazol-3-yl)-2,4-dioxo-1,4-dihydro-2H-quinazolin-3-yl]-methanesulfonamide], 40%.

The same test, now with this note: Mus musculus, po; 50 mg/kg, p.o., pre-treatment time −2 h (footnote a); read-out: %-Protection.
With `CC(C)CC(=O)N(n1c(=O)[nH]c2cc(C(F)(F)F)c(-n3cnnc3)cc2c1=O)S(C)(=O)=O` [Example 9.01, N-(2,4-Dioxo-6-[1,2,4]triazol-4-yl-7-trifluoromethyl-1,4-dihydro-2H-quinazolin-3-yl)-N-(3-methyl-butyryl)-methanesulfonamide], the responders at 50 mg/kg stood at 40%.

The same test, now with this note: Mus musculus, po; Dose: 15 mg/kg, p.o. (footnote c), pre-treatment time −1 h; read-out: %-Protection.
For the molecule `CCOC(=O)CCCC(=O)N(n1c(=O)[nH]c2cc(C(C)C)c(-c3ccnn3C)cc2c1=O)S(C)(=O)=O` [Example 3.08, 5-{[7-Isopropyl-6-(2-methyl-2H-pyrazol-3-yl)-2,4-dioxo-1,4-dihydro-2H-quinazolin-3-yl]-methanesulfonyl-amino}-5-oxo-pentanoic acid ethyl ester], the responders at 15 mg/kg is 100%.
As to `COCCOC(=O)N(n1c(=O)[nH]c2cc(C(C)C)c(-c3ccnn3C)cc2c1=O)S(C)(=O)=O` [Example 3.02, [7-Isopropyl-6-(2-methyl-2H-pyrazol-3-yl)-2,4-dioxo-1,4-dihydro-2H-quinazolin-3-yl]-methanesulfonyl-carbamic acid 2-methoxy-ethyl ester], the responders at 15 mg/kg turned out to be 100%.

Still in this test, the particulars now being: Mus musculus, po; Dose: 25 mg/kg, p.o. (footnote b), pre-treatment time −1 h; read-out: %-Protection.
Take `CCCC(=O)N(n1c(=O)[nH]c2cc(C(F)F)c(-c3ccnn3C(C)C)cc2c1=O)S(C)(=O)=O` [Example 6.02, N-Butyryl-N-[7-difluoromethyl-6-(2-isopropyl-2H-pyrazol-3-yl)-2,4-dioxo-1,4-dihydro-2H-quinazolin-3-yl]-methanesulfonamide]: the responders at 25 mg/kg came out at 0%.

Still in this test, the particulars now being: Mus musculus, sc; Dose: 25 mg/kg, s.c., pre-treatment time −4 h (footnote f); read-out: %-Protection.
`CCCCCCCCCC(=O)N(n1c(=O)[nH]c2cc(C(C)C)c(-c3ccnn3C)cc2c1=O)S(C)(=O)=O` [Example 3.15, N-Decanoyl-N-[7-isopropyl-6-(2-methyl-2H-pyrazol-3-yl)-2,4-dioxo-1,4-dihydro-2H-quinazolin-3-yl]-methanesulfonamide]: the responders at 25 mg/kg turned out to be 20%.

The same test, now with this note: Mus musculus; dose of up to 50 mg/kg, p.o., 1 hour prior to induction of convulsions; read-out: %-Protection.
In the case of `CC(C)C(=O)N(n1c(=O)[nH]c2cc(C(F)(F)F)c([C@H]3CCCO3)cc2c1=O)S(C)(=O)=O` [N—((R)-2,4-Dioxo-6-tetrahydro-furan-2-yl-7-trifluoromethyl-1,4-dihydro-2H-quinazolin-3-yl)-N-isobutyryl-methanesulfonamide], the responders at 50 mg/kg was 0%.
Still for that read-out and setting: as for `CCCCCCCCCC(=O)N(n1c(=O)[nH]c2cc(C(C)C)c(-c3ccnn3C)cc2c1=O)S(C)(=O)=O` [Example 3.15, N-Decanoyl-N-[7-isopropyl-6-(2-methyl-2H-pyrazol-3-yl)-2,4-dioxo-1,4-dihydro-2H-quinazolin-3-yl]-methanesulfonamide], the figure is 0%.
